From patent US20150306094A1, “TRANS-4--N,N-DIMETHYLCARBAMOYL-CYCLOHEXYLAMINE FOR TREATING NEGATIVE SYMPTOMS OF SCHIZOPHRENIA” (RICHTER GEDEON NYRT., priority 2012, published 2015)
Entries after “also recorded” stand apart in the source; their conditions may differ.

Tested on: patients with schizophrenia
Experiment: international, multicenter, double-blind, placebo- and risperidone-controlled, fixed-dose clinical study
Type: in vivo, human
Details: for improvement on the PANSS factor score for negative symptoms, subpopulation with predominantly negative symptoms compared to ITT population: 6 week period, risperidone 4 mg/day, FIG. 1-4
Description: In the clinical study beside the ITT (intent to treat) population which included the total number of the patients, a subgroup was identified including patients with predominantly negative symptoms. This subgroup was identical with the patient subpopulation showing severe negative symptoms defined by Lenert et al. (Schizophrenia Research 71 (2004) 155-165). Patients showing severe negative symptoms were separated into two groups: State 4 and State 6 (definitions are described in Example). State 4 and State 6 together represent the patient subpopulation with predominantly negative symptoms.
The term “change from baseline” refers to the change of the value of the PANSS factor score for negative symptoms compared to the value registered before treatment started (at the baseline visit). The values were calculated using least squares method. The least squares mean (LSM) values resulted from the analysis of covariance (ANCOVA) model with treatment group and study center as factors and the baseline PANSS factor score of negative symptoms as the covariate.
PANSS factor score for negative symptoms: Sum of scores for items 1, 2, 3, 4, and 6 in negative subscale: blunted affect, emotional withdrawal, poor rapport, passive social withdrawal, lack of spontaneity; and items 7 and 16 in general psychopathology subscale: motor retardation, and active social avoidance. Higher scores indicate worsening.
A representative clinical study was conducted as an international, multicenter, double-bind, placebo- and risperidone-controlled, fixed-dose trial. The objective of the study was to evaluate the safety and efficacy of cariprazine fixed doses in patients with schizophrenia. A total of 732 patients were selected using criteria that includes patients who (i) currently meet or have met in the past the Diagnostic and Statistical Manual of Mental Disorders, Fourth Edition, Text Revision (DSM-IV-TR) criteria for schizophrenia (295.30 Paranoid Type, 295.10 Disorganized Type, 295.20 Catatonic Type, or 295.90 Undifferentiated Type) based on the Structured Clinical Interview for DSM-IV (SCID), (ii) have a PANSS total score ≧80 and ≦120, (iii) have a score ≧4 on Clinical Global Impression-Severity scale (iv) have a score ≧4 on at least 2 of the following 4 PANSS positive symptoms: delusions, hallucinatory behavior, conceptual disorganization, and suspiciousness/persecution.
During a 6 week period, 3 doses of cariprazine (1.5 mg/day, 3 mg/day, 4.5 mg/day) was compared to placebo and to an effective dose of risperidone (4.0 mg/day).
Beside the ITT (intent to treat) population which included the total number of the patients, a subgroup was identified including patients with predominantly negative symptoms. […]

Structure (SMILES)	improvement on the PANSS factor score for negative symptoms, subpopulation with predominantly negative symptoms compared to ITT population (cariprazine 1.5, 3, 4.5 mg/day)	effect on primary negative symptoms of schizophrenia (conclusion from the clinical study of the Example)	effect of extrapyramidal symptoms (EPS) on the change of PANSS factor score for negative symptoms (week 6, patients with predominantly negative symptoms vs subgroup without EPS, cariprazine 1.5, 3, 4.5 mg/day, FIG. 5)
Cc1nc2n(c(=O)c1CCN1CCC(c3noc4cc(F)ccc34)CC1)CCCC2 [risperidone, reference compound]	no difference	–	–
CN(C)C(=O)N[C@H]1CC[C@H](CCN2CCN(c3cccc(Cl)c3Cl)CC2)CC1 [cariprazine, trans-4-{2-[4-(2,3-dichlorophenyl)-piperazin-1-yl]-ethyl}-N,N-dimethylcarbamoyl-cyclohexylamine]	numerically higher improvement	can be treated effectively; also recorded: direct effect on negative symptoms	does not seem to be influenced by the treatment emergent EPS
